Results taken from US9139532B2, “Pyrazolyl guanidine F1F0-atpase inhibitors and therapeutic uses thereof” (Lycera Corporation, priority 2010, dated 2015).
Like-named read-outs stand apart in the source and are kept apart here.

Legend:
Ramos cells = assay: Cytotoxicity in Ramos cells; assay type: cell-based; details: cytotoxicity in Ramos cells, read-out: Ramos Cell EC50
F1F0-ATPase = biological target: T1, F1F0-ATPase (Bos taurus, UniProt P13621); assay: Inhibition of F1F0-ATPase activity in synthesizing ATP; assay type: biochemical; details: inhibition of ATP synthesis by F1F0-ATPase; read-out: ATP Syn IC50
T1 construct: from tissue

Row | SMILES | IC50 (F1F0-ATPase) [µM] | EC50 (Ramos cells) [µM] | EC50 (Ramos cells; Homo sapiens) [µM]
1 | CC(C)C(C)N/C(=N/C(=O)c1ccc(C(F)(F)F)cc1)Nc1cc(-c2cc(F)cc(F)c2)n[nH]1 (stereo not shown) [Compound A-295] | < 10 | < 10 | –
2 | CC(C)NC(=NC(=O)c1ccc(C(F)(F)F)cc1)Nc1cc(-c2cc(F)cc(F)c2)n[nH]1 [Compound A-296] | < 10 | – | < 10
3 | CCC(C)NC(=NC(=O)c1ccc(C(F)(F)F)cc1)Nc1cc(-c2cc(F)cc(F)c2)n[nH]1 (stereo not shown) [Compound A-297] | < 10 | – | < 10
4 | O=C(N=C(Nc1cc(-c2cc(F)cc(F)c2)n[nH]1)NC1CCC1)c1ccc(C(F)(F)F)cc1 [Compound A-298] | < 10 | – | < 10
5 | CC(C)(C)N/C(=N/C(=O)c1ccc(C(F)(F)F)cc1)Nc1cc(-c2cc(F)cc(F)c2)n[nH]1 [Compound A-299] | < 10 | < 10 | –
6 | CCC(C)CNC(=NC(=O)c1cccc(C#N)c1)Nc1cc(-c2ccc(Cl)cc2)n[nH]1 (stereo not shown) [Compound A-300] | < 10 | – | < 10
7 | CC(C)OCCCN/C(=N/C(=O)c1cccc(C#N)c1)Nc1cc(-c2ccc(Cl)cc2)n[nH]1 [Compound A-301] | < 10 | < 10 | –
8 | N#Cc1cccc(C(=O)/N=C(\Nc2cc(-c3ccc(Cl)cc3)n[nH]2)NC2CCCC2)c1 [Compound A-302] | < 10 | < 10 | –
9 | CC(C)CNC(=NC(=O)c1cccc(C#N)c1)Nc1cc(-c2ccc(Cl)cc2)n[nH]1 [Compound A-303] | < 10 | – | < 10
10 | CC(C)C(C)N/C(=N/C(=O)c1cccc(C#N)c1)Nc1cc(-c2ccc(Cl)cc2)n[nH]1 (stereo not shown) [Compound A-304] | < 10 | < 10 | –
11 | CC(C)NC(=NC(=O)c1cccc(C#N)c1)Nc1cc(-c2ccc(Cl)cc2)n[nH]1 [Compound A-305] | < 10 | – | < 10
12 | CCC(C)N/C(=N/C(=O)c1cccc(C#N)c1)Nc1cc(-c2ccc(Cl)cc2)n[nH]1 (stereo not shown) [Compound A-306] | < 10 | < 10 | –
13 | N#Cc1cccc(C(=O)/N=C(\Nc2cc(-c3ccc(Cl)cc3)n[nH]2)NC2CCC2)c1 [Compound A-307] | < 10 | < 10 | –
14 | CC(C)(C)N/C(=N/C(=O)c1cccc(C#N)c1)Nc1cc(-c2ccc(Cl)cc2)n[nH]1 [Compound A-308] | < 10 | < 10 | –
15 | N#Cc1cccc(C(=O)/N=C(\Nc2cc(-c3cc(F)cc(F)c3)n[nH]2)NC2CCCC2)c1 [Compound A-309] | < 10 | < 10 | –
16 | CC(C)CN/C(=N/C(=O)c1cccc(C#N)c1)Nc1cc(-c2cc(F)cc(F)c2)n[nH]1 [Compound A-310] | < 10 | < 10 | –
17 | CC(C)C(C)N/C(=N/C(=O)c1cccc(C#N)c1)Nc1cc(-c2cc(F)cc(F)c2)n[nH]1 (stereo not shown) [Compound A-311] | < 10 | < 10 | –
18 | CC(C)N/C(=N/C(=O)c1cccc(C#N)c1)Nc1cc(-c2cc(F)cc(F)c2)n[nH]1 [Compound A-312] | < 10 | < 10 | –

The next lines start with results.

Row | IC50 (F1F0-ATPase) [µM] | SMILES | EC50 (Ramos cells) [µM] | EC50 (Ramos cells; Homo sapiens) [µM]
19 | < 10 | CCOCC(C)NC(=NC(=O)c1ccc(F)cc1)Nc1cc(-c2ccc(F)cc2)n[nH]1 (stereo not shown) [Compound A-269] | < 10 | –
20 | < 10 | O=C(/N=C(/NCC1CCO1)Nc1cc(-c2ccc(F)cc2)n[nH]1)c1ccc(F)cc1 (stereo not shown) [Compound A-270] | > 10 | –
21 | < 10 | CC(C)OCCN/C(=N/C(=O)c1ccc(F)cc1)Nc1cc(-c2ccc(F)cc2)n[nH]1 [Compound A-271] | < 10 | –
22 | < 10 | COC[C@H](C)N/C(=N/C(=O)c1ccc(Cl)cc1)Nc1cc(-c2ccc(F)cc2)n[nH]1 [Compound A-272] | – | < 10
23 | < 10 | COCC(C)NC(=NC(=O)c1ccc(Cl)c(F)c1)Nc1cc(-c2cc(F)cc(F)c2)n[nH]1 (stereo not shown) [Compound A-273] | < 10 | –
24 | < 10 | COCC(C)NC(=NC(=O)c1ccc(F)c(F)c1)Nc1cc(-c2ccc(F)cc2)n[nH]1 (stereo not shown) [Compound A-274] | < 10 | –
25 | < 10 | COCC(C)NC(=NC(=O)c1ccc(F)cc1)Nc1cc(-c2cc(F)cc(F)c2)n[nH]1 (stereo not shown) [Compound A-275] | < 10 | –
26 | < 10 | COCC(C)NC(=NC(=O)c1ccc(F)cc1)Nc1cc(-c2ccc(Cl)cc2)n[nH]1 (stereo not shown) [Compound A-276] | < 10 | –
27 | < 10 | CCOCCCN/C(=N/C(=O)c1ccc(F)c(F)c1)Nc1cc(-c2ccc(Cl)cc2)n[nH]1 [Compound A-277] | > 10 | –
28 | < 10 | CCOCCCNC(=NC(=O)c1ccc(Cl)cc1)Nc1cc(-c2ccc(F)cc2)n[nH]1 [Compound A-278] | – | > 10
29 | < 10 | CCOCCCN/C(=N/C(=O)c1cccc(F)c1)Nc1cc(-c2ccc(F)cc2)n[nH]1 [Compound A-279] | < 10 | –
30 | < 10 | CCOCCCN/C(=N/C(=O)c1ccc(F)cc1)Nc1cc(-c2ccc(F)cc2)n[nH]1 [Compound A-280] | > 10 | –
31 | < 10 | CCOCCCN/C(=N/C(=O)c1ccc(F)c(F)c1)Nc1cc(-c2ccc(C)c(F)c2)n[nH]1 [Compound A-281] | < 10 | –
32 | < 10 | CCOCCCN/C(=N/C(=O)c1ccc(C(F)(F)F)cc1)Nc1cc(-c2cc(F)cc(F)c2)n[nH]1 [Compound A-282] | < 10 | –
33 | < 10 | CC(C)OCCCNC(=NC(=O)c1ccc(F)c(F)c1)Nc1cc(-c2cc(F)cc(Cl)c2)n[nH]1 [Compound A-283] | – | < 10
34 | < 10 | O=C(/N=C(\Nc1cc(-c2cc(F)cc(Cl)c2)n[nH]1)NC1CCC1)c1ccc(F)c(F)c1 [Compound A-284] | < 10 | –
35 | < 10 | CCC(C)NC(=NC(=O)c1ccc(F)c(F)c1)Nc1cc(-c2cc(F)cc(Cl)c2)n[nH]1 (stereo not shown) [Compound A-285] | – | < 10
36 | < 10 | CC(C)N/C(=N/C(=O)c1ccc(F)c(F)c1)Nc1cc(-c2cc(F)cc(Cl)c2)n[nH]1 [Compound A-286] | < 10 | –
37 | < 10 | CC(C)CN/C(=N/C(=O)c1ccc(F)c(F)c1)Nc1cc(-c2cc(F)cc(Cl)c2)n[nH]1 [Compound A-287] | < 10 | –
38 | < 10 | CC1(NC(=NC(=O)c2ccc(F)c(F)c2)Nc2cc(-c3cc(F)cc(Cl)c3)n[nH]2)CCCC1 [Compound A-288] | – | < 10
39 | < 10 | O=C(/N=C(\Nc1cc(-c2cc(F)cc(Cl)c2)n[nH]1)NC1CCCC1)c1ccc(F)c(F)c1 [Compound A-289] | < 10 | –
40 | < 10 | CC(C)(C)N/C(=N/C(=O)c1ccc(F)c(F)c1)Nc1cc(-c2cc(F)cc(Cl)c2)n[nH]1 [Compound A-290] | < 10 | –
41 | < 10 | O=C(/N=C(\Nc1cc(-c2cc(F)cc(F)c2)n[nH]1)NC1CCCC1)c1ccc(C(F)(F)F)cc1 [Compound A-291] | < 10 | –
42 | < 10 | O=C(N=C(NCc1ccc(F)cc1Cl)Nc1cc(-c2cc(F)cc(F)c2)n[nH]1)c1ccc(C(F)(F)F)cc1 [Compound A-292] | – | < 10
43 | < 10 | CC(C)CN/C(=N/C(=O)c1ccc(C(F)(F)F)cc1)Nc1cc(-c2cc(F)cc(F)c2)n[nH]1 [Compound A-293] | < 10 | –
44 | < 10 | O=C(N=C(Nc1cc(-c2cc(F)cc(F)c2)n[nH]1)Nc1ccc(F)cc1Cl)c1ccc(C(F)(F)F)cc1 [Compound A-294] | – | > 10
